Source: patent US20160185797A1, “ALKYNYL ALCOHOLS AND METHODS OF USE” (Genentech, Inc., priority 2013, published 2016)

Key:
[1] = molecular target: T1, nuclear factor-kappa B (NF-kB)-inducing kinase (NIK) (Homo sapiens, UniProt Q99558); assay: NIK enzyme inhibition assay (Transcreener ADP fluorescence polarization, NIK ADP-FP); format: biochemical
T1 construct: made in house; host or cells: baculovirus-infected insect cells
Description: NIK Enzyme Inhibition Assay:
The ability of the nuclear factor-kappa B (NF-kB)-inducing kinase (NIK) to catalyze the hydrolysis of adenosine-5′-triphosphate (ATP) was monitored using the Transcreener ADP (adenosine-5′-diphosphate) assay (BellBrook Labs). […] Reactions were quenched by the addition of 20 mM 2,2′,2″,2′″-(ethane-1,2-diyldinitrilo)tetraacetic acid and 0.01% Brij 35. The tracer bound to the antibody was displaced by the ADP generated during the NIK reaction, which causes a decrease in fluorescence polarization that was measured by laser excitation at 633 nm with a Fluorescence Correlation Spectroscopy Plus reader (Evotec AG). Equilibrium dissociation constant (Ki) values for NIK inhibitors are calculated from plots of activity vs. inhibitor concentration using Morrison's quadratic equation that accounts for the potential of tight binding, and by also applying the conversion factor that accounted for competitive inhibition and the concentration of substrate used in the assay relative to its Michaelis constant (Km).

[2] = system: p52 (NF-kB2) nuclear translocation in HeLa cells; assay: p52 (NF-kB2) nuclear translocation assay in HeLa cells, anti-lymphotoxin beta receptor antibody stimulated (non-classical NF-kB signaling), high content imaging; format: cell-based; settings: Homo sapiens, 100 ng/mL anti-lymphotoxin beta receptor antibody for 5 hours, read-out: p52 HeLa Transloc Assay (IC50)
Method in brief: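 HeLa cells in 10% FBS medium were treated with compound (0.2% DMSO final) and stimulated with 100 ng/mL anti-lymphotoxin beta receptor antibody for 5 h. Fixed cells were immunostained for p52 and imaged with DRAQ5 nuclear stain. Translocation is the nuclear to cytoplasmic intensity ratio, […].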

[3] = system: REL-A (p65) nuclear translocation in HeLa cells; assay: REL-A (p65) nuclear translocation assay in HeLa cells, TNF-α stimulated (classical NF-kB signaling), high content imaging; format: cell-based; settings: Homo sapiens, HeLa, compound 4.5 h, then 10 ng/mL TNF-α for 30 minutes, read-out: REL-A HeLa Transloc Assay (IC50)
Method in brief: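 HeLa cells in medium with 10% fetal bovine serum were exposed to compounds (0.2% DMSO final) for 4.5 hours, then stimulated with 10 ng/mL TNF-α for 30 minutes. After fixation in 4% paraformaldehyde and permeabilization with 0.1% Triton X-100, cells were stained with 400 ng/mL anti-REL-A (p65) antibody, an Alexa488 secondary and DRAQ5. Opera imaging quantified the nuclear-to-cytoplasmic signal ratio to give IC50.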

T1 sequence (Q99558 whole entry): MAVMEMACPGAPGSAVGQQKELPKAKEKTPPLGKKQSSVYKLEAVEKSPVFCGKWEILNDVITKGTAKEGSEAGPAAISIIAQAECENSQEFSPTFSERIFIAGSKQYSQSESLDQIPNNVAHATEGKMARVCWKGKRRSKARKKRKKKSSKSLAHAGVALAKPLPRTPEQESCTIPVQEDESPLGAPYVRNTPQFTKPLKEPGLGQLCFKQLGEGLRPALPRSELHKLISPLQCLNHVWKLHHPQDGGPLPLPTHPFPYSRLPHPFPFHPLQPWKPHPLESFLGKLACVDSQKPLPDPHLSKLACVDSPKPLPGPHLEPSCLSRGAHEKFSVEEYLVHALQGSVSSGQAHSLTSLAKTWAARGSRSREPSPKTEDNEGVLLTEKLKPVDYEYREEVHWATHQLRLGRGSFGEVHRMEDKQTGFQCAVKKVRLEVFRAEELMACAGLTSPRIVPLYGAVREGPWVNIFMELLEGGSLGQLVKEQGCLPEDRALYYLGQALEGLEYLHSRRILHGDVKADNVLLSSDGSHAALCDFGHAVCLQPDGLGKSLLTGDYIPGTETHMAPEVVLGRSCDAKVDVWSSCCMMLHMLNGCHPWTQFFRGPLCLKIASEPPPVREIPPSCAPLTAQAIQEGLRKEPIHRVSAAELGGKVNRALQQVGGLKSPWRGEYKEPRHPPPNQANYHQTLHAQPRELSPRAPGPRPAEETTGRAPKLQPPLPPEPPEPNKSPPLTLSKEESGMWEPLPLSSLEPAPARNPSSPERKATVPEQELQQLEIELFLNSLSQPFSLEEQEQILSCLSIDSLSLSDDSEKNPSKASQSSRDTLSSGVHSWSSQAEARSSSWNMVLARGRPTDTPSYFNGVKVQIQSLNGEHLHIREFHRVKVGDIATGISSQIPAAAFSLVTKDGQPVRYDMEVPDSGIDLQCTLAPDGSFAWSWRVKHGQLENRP

Structure (SMILES) | Ki [1] | IC50 [2] | IC50 [3]
CN1CC[C@@](O)(C#Cc2ccc(F)c(-c3ncc(N)c(C(N)=O)n3)c2)C1=O [Example 110, 5-amino-2-[2-fluoro-5-[2-[(3R)-3-hydroxy-1-methyl-2-oxo-pyrrolidin-3-yl]ethynyl]phenyl]pyrimidine-4-carboxamide] | 0.14 nM | 84.3 nM | ≥ 2000 nM
Cc1ccnn1-c1cc(C(N)=O)nc(-c2ccc(F)c(C#C[C@]3(O)CCN(C)C3=O)c2)n1 [Example 111, 2-[4-fluoro-3-[2-[(3R)-3-hydroxy-1-methyl-2-oxo-pyrrolidin-3-yl]ethynyl]phenyl]-6-(5-methylpyrazol-1-yl)pyrimidine-4-carboxamide] | 0.37 nM | 75.8 nM | ≥ 2000 nM
CN1CC[C@@](O)(C#Cc2cccc(-c3nc(C(N)=O)c(N)n4ccnc34)c2)C1=O [Example 112, 5-amino-8-[3-[2-[(3R)-3-hydroxy-1-methyl-2-oxo-pyrrolidin-3-yl]ethynyl]phenyl]imidazo[1,2-a] pyrazine-6-carboxamide] | 0.05 nM | 88.8 nM | ≥ 20000 nM
CN1CC[C@@](O)(C#Cc2cccc(-c3nc(C(N)=O)cn4c(C(F)(F)F)cnc34)c2)C1=O [Example 113, 8-[3-[2-[(3R)-3-hydroxy-1-methyl-2-oxo-pyrrolidin-3-yl]ethynyl]phenyl]-3-(trifluoromethyl)imidazo [1,2-a]pyrazine-6-carboxamide] | 2.12 nM | 212 nM | ≥ 2000 nM
CCn1ncc2c(-c3cccc(C#C[C@]4(O)CCN(C)C4=O)c3)nc(C(N)=O)cc21 [Example 114, 1-ethyl-4-[3-[2-[(3R)-3-hydroxy-1-methyl-2-oxo-pyrrolidin-3-yl]ethynyl]phenyl]pyrazolo[4,3-c] pyridine-6-carboxamide] | 1.48 nM | 211 nM | ≥ 2000 nM
CN1CC[C@@](O)(C#Cc2cc(-c3nc(C(N)=O)c(N)cc3F)ccc2F)C1=O [Example 116, 3-amino-5-fluoro-6-[4-fluoro-3-[2-[(3R)-3-hydroxy-1-methyl-2-oxo-pyrrolidin-3-yl]ethynyl]phenyl]pyridine-2-carboxamide] | 0.05 nM | 11.6 nM | 12400 nM
CN1CC[C@@](O)(C#Cc2ccc(F)c(-c3cnc(N)c(C(N)=O)n3)c2)C1=O [Example 117, 3-amino-6-[2-fluoro-5-[2-[(3R)-3-hydroxy-1-methyl-2-oxo-pyrrolidin-3-yl]ethynyl]phenyl] pyrazine-2-carboxamide] | 0.05 nM | 12.5 nM | ≥ 20000 nM
CN1CC[C@@](O)(C#Cc2cc(-c3ccc(N)c(C(N)=O)n3)c(F)cc2F)C1=O [Example 118, 3-amino-6-[2,4-difluoro-5-[2-[(3R)-3-hydroxy-1-methyl-2-oxo-pyrrolidin-3-yl]ethynyl]phenyl]pyridine-2-carboxamide] | 0.05 nM | 19 nM | ≥ 2000 nM
CCNc1ccc(-c2ccc(C#N)c(C#C[C@]3(O)CCN(C)C3=O)c2)nc1C(N)=O [Example 119, 6-[4-cyano-3-[2-[(3R)-3-hydroxy-1-methyl-2-oxo-pyrrolidin-3-yl]ethynyl]phenyl]-3-(ethylamino) pyridine-2-carboxamide] | 0.1 nM | 108 nM | ≥ 2000 nM
CN1CC[C@@](O)(C#Cc2cccc(-c3nc(C(N)=O)c(NCc4ccon4)cc3F)c2)C1=O [Example 120, 5-fluoro-6-[3-[2-[(3R)-3-hydroxy-1-methyl-2-oxo-pyrrolidin-3-yl]ethynyl]phenyl]-3-(isoxazol-3-ylmethylamino)pyridine-2-carboxamide] | 0.33 nM | 26.6 nM | ≥ 2000 nM
CN1CC[C@@](O)(C#Cc2cccc(-c3cc(OC4COC4)cc(C(N)=O)n3)c2)C1=O [Example 122, 6-[3-[2-[(3R)-3-hydroxy-1-methyl-2-oxo-pyrrolidin-3-yl]ethynyl]phenyl]-4-(oxetan-3-yloxy) pyridine-2-carboxamide] | 0.81 nM | 226 nM | ≥ 2000 nM
Cc1cc(C(N)=O)nc(-c2cccc(C#C[C@]3(O)CCN(C)C3=O)c2)c1 [Example 123, 6-[3-[2-[(3R)-3-hydroxy-1-methyl-2-oxo-pyrrolidin-3-yl]ethynyl]phenyl]-4-methyl-pyridine-2-carboxamide] | 0.09 nM | 79.4 nM | ≥ 2000 nM
CN1CC[C@@](O)(C#Cc2cccc(-c3cc(N)cc(C(N)=O)n3)c2)C1=O [Example 124, 4-amino-6-[3-[2-[(3R)-3-hydroxy-1-methyl-2-oxo-pyrrolidin-3-yl]ethynyl]phenyl]pyridine-2-carboxamide] | 0.05 nM | 300 nM | ≥ 2000 nM
Cc1ccnn1-c1cc(C(N)=O)nc(-c2cccc(C#C[C@]3(O)CCN(C)C3=O)c2)c1 [Example 125, 6-[3-[2-[(3R)-3-hydroxy-1-methyl-2-oxo-pyrrolidin-3-yl]ethynyl]phenyl]-4-(5-methylpyrazol-1-yl) pyridine-2-carboxamide] | 1.29 nM | 84.2 nM | ≥ 2000 nM
Cc1ccc(-c2cc(C(N)=O)nc(-c3cccc(C#C[C@]4(O)CCN(C)C4=O)c3)c2)cn1 [Example 126, 6-[3-[2-[(3R)-3-hydroxy-1-methyl-2-oxo-pyrrolidin-3-yl]ethynyl]phenyl]-4-(6-methyl-3-pyridyl)pyridine-2-carboxamide] | 0.05 nM | 122 nM | ≥ 2000 nM
CN1CC[C@@](O)(C#Cc2cccc(-c3cc(-c4cnccn4)cc(C(N)=O)n3)c2)C1=O [Example 127, 6-[3-[2-[(3R)-3-hydroxy-1-methyl-2-oxo-pyrrolidin-3-yl]ethynyl]phenyl]-4-pyrazin-2-yl-pyridine-2-carboxamide] | 0.08 nM | 183 nM | ≥ 2000 nM
COCCNc1ccc(-c2cccc(C#C[C@]3(O)CCN(C)C3=O)c2)nc1C(N)=O [Example 128, 6-[3-[2-[(3R)-3-hydroxy-1-methyl-2-oxo-pyrrolidin-3-yl]ethynyl]phenyl]-3-(2-methoxyethylamino) pyridine-2-carboxamide] | 0.05 nM | 27.2 nM | ≥ 2000 nM
CN1CC[C@@](O)(C#Cc2cccc(-c3cc(-c4ncccn4)cc(C(N)=O)n3)c2)C1=O [Example 129, 6-[3-[2-[(3R)-3-hydroxy-1-methyl-2-oxo-pyrrolidin-3-yl]ethynyl]phenyl]-4-pyrimidin-2-yl-pyridine-2-carboxamide] | 0.3 nM | 155 nM | ≥ 2000 nM
Cc1nnc([C@](C)(O)C#Cc2cccc(-c3nc(C(N)=O)c(N)cc3F)c2)o1 [Example 130, 3-amino-5-fluoro-6-[3-[(3R)-3-hydroxy-3-(5-methyl-1,3,4-oxadiazol-2-yl)but-1-ynyl]phenyl]pyridine-2-carboxamide] | 9.05 nM | ≥ 2000 nM | ≥ 2000 nM
CN1CCC[C@@](O)(C#Cc2cccc(-c3nc(C(N)=O)c(N)cc3F)c2)C1=O [Example 131, 3-amino-5-fluoro-6-[3-[2-[(3R)-3-hydroxy-1-methyl-2-oxo-3-piperidyl]ethynyl]phenyl]pyridine-2-carboxamide] | 1.06 nM | 142 nM | ≥ 2000 nM
Cc1nc([C@](C)(O)C#Cc2cccc(-c3nc(C(N)=O)c(N)cc3F)c2)no1 [Example 132, 3-amino-5-fluoro-6-[3-[(3R)-3-hydroxy-3-(5-methyl-1,2,4-oxadiazol-3-yl)but-1-ynyl]phenyl]pyridine-2-carboxamide] | 8.75 nM | ≥ 2000 nM | ≥ 2000 nM
Cc1ccc(-c2cccc(C#C[C@]3(O)CCN(C)C3=O)c2)nc1C(N)=O [Example 133, 6-[3-[2-[(3R)-3-hydroxy-1-methyl-2-oxo-pyrrolidin-3-yl]ethynyl]phenyl]-3-methyl-pyridine-2-carboxamide] | 0.18 nM | 160 nM | ≥ 2000 nM
COCCNc1ncc(-c2cc(C#C[C@]3(O)CCN(C)C3=O)ccc2F)nc1C(N)=O [Example 134, 6-[2-fluoro-5-[2-[(3R)-3-hydroxy-1-methyl-2-oxo-pyrrolidin-3-yl]ethynyl]phenyl]-3-(2-methoxyethylamino) pyrazine-2-carboxamide] | 0.09 nM | 45.4 nM | ≥ 2000 nM
CN1CC[C@@](O)(C#Cc2cccc(-c3cc(C(F)(F)F)cc(C(N)=O)n3)c2)C1=O [Example 135, 6-[3-[2-[(3R)-3-hydroxy-1-methyl-2-oxo-pyrrolidin-3-yl]ethynyl]phenyl]-4-(trifluoromethyl) pyridine-2-carboxamide] | 0.53 nM | 147 nM | ≥ 2000 nM
COc1cc(-c2cccc(C#C[C@]3(O)CCN(C)C3=O)c2)nc(C(N)=O)n1 [Example 136, 4-[3-[2-[(3R)-3-hydroxy-1-methyl-2-oxo-pyrrolidin-3-yl]ethynyl]phenyl]-6-methoxy-pyrimidine-2-carboxamide] | 0.5 nM | 152 nM | ≥ 2000 nM
Cc1nnc([C@](C)(O)C#Cc2cccc(-c3nc(C(N)=O)cc(-c4ccnn4C)n3)c2)o1 [Example 137, 2-[3-[(3R)-3-hydroxy-3-(5-methyl-1,3,4-oxadiazol-2-yl)but-1-ynyl]phenyl]-6-(2-methylpyrazol-3-yl)pyrimidine-4-carboxamide] | 3.68 nM | 268 nM | ≥ 20000 nM
